Tests used:
Assay type in all cases: biochemical
HDAC1 = biological target: T1, HDAC1 (Homo sapiens, UniProt Q13547); assay: HDAC Inhibition Screening Assay (FLUOR DE LYS Fluorimetric Drug Discovery Kit), HDAC1; settings: for inhibition at 2 µM: 2 μM compound; for inhibition at 10 µM: 10 μM compound; for inhibition at 50 µM: 50 μM compound
T1 construct: purchased Enzo Life Sciences
Summary of the method: (§1)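 Two-step fluorimetric kit: enzyme deacetylates acetylated-lysine substrate; developer then releases fluorophore. Test cpds 2, 10, 50 μM. Ex 360/485 nm, Em 460/530 nm. Activity = % of basal control minus baseline control.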

HDAC2 = biological target: T2, HDAC2 (Homo sapiens, UniProt Q92769); assay: HDAC Inhibition Screening Assay (FLUOR DE LYS Fluorimetric Drug Discovery Kit), HDAC2; settings: for inhibition at 2 µM: 2 μM compound; for inhibition at 10 µM: 10 μM compound; for inhibition at 50 µM: 50 μM compound
T2 construct: purchased Enzo Life Sciences
Summary of the method: as §1

HDAC3 = biological target: T3, HDAC3 (Homo sapiens, UniProt O15379); assay: HDAC Inhibition Screening Assay (FLUOR DE LYS Fluorimetric Drug Discovery Kit), HDAC3; settings: for inhibition at 2 µM: 2 μM compound; for inhibition at 10 µM: 10 μM compound; for inhibition at 50 µM: 50 μM compound
T3 construct: purchased Enzo Life Sciences
Summary of the method: as §1

ATX (autotaxin) = biological target: T4, ATX (autotaxin) (Homo sapiens, UniProt Q13822); assay: Autotaxin Inhibition Screening Assay (choline release from LPC, LPC-CR); settings: for inhibition at 4 µM: 4 μM compound; for inhibition at 20 µM: 20 μM compound; for inhibition at 50 µM: 50 μM compound
T4 construct: purchased Cayman 10803
Summary of the method: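 20 ng ATX incubated with 100 μM 14:0 LPC in 50 mM Tris pH 8.0, 0.01% Triton X-100, 50 mM CaCl2, with choline oxidase/HRP/2 mM HVA coupling; compounds at 4, 20 and 50 μM. HVA fluorescence (ex/em 320/450 nm) read every 60 s for 90 min; inhibition % from slopes corrected for blank versus vehicle.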

T1 sequence (Q13547 whole entry): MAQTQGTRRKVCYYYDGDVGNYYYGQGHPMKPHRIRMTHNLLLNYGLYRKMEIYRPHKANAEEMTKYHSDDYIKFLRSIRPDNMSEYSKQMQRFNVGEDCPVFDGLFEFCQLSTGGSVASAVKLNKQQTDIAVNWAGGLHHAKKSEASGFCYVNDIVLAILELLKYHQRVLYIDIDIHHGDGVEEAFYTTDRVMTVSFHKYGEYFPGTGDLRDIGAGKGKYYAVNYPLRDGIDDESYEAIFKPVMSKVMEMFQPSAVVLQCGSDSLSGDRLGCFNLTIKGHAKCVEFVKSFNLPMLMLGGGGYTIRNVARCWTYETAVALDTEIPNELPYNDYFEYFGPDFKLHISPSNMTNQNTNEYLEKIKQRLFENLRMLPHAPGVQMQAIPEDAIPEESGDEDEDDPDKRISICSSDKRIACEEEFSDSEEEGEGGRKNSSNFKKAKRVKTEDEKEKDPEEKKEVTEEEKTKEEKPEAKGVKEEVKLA
T3 sequence (O15379 whole entry): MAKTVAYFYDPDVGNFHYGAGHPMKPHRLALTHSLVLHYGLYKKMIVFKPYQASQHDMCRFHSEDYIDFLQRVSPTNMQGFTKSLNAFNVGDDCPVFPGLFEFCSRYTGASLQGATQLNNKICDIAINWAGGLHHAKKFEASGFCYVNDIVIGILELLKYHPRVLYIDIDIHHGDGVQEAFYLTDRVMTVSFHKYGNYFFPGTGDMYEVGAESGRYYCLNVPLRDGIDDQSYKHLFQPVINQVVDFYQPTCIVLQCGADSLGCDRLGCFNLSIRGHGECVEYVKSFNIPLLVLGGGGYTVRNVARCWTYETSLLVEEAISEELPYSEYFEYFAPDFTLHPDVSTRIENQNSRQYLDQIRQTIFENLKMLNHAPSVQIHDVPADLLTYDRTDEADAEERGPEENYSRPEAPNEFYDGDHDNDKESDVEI
T3 sequence (O75376 395-489 partner limits assumed): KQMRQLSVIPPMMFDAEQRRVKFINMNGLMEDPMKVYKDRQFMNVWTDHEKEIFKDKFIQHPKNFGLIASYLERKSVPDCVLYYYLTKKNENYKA
T2 sequence (Q92769 whole entry): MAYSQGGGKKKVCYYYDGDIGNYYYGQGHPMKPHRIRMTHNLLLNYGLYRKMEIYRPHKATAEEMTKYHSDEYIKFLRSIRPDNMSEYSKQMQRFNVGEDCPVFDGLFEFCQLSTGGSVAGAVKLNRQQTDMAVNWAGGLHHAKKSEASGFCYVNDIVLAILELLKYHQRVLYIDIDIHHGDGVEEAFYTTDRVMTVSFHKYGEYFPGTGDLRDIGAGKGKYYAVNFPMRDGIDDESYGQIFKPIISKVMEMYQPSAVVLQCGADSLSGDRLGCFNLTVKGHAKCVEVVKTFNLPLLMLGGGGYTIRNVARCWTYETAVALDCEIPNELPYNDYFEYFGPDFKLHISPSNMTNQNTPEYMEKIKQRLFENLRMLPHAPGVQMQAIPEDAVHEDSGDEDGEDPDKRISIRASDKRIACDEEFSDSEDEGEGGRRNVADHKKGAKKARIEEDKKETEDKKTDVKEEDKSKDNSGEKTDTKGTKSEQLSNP

Structure (SMILES) | inhibition at 2 µM (HDAC1) [%] | inhibition at 10 µM (HDAC1) [%] | inhibition at 50 µM (HDAC1) [%] | inhibition at 2 µM (HDAC2) [%] | inhibition at 10 µM (HDAC2) [%] | inhibition at 50 µM (HDAC2) [%] | inhibition at 2 µM (HDAC3) [%] | inhibition at 10 µM (HDAC3) [%] | inhibition at 50 µM (HDAC3) [%] | inhibition at 4 µM (ATX (autotaxin)) [%] | inhibition at 20 µM (ATX (autotaxin)) [%] | inhibition at 50 µM (ATX (autotaxin)) [%]
Cc1[nH]c2ccccc2c1CCNC1CCc2cc(/C=C/C(=O)Nc3ccc(F)cc3N)ccc21 (stereo not drawn) [Compound 59, (E)-N-(2-amino-4-fluorophenyl)-3-(1-((2-(2-methyl-1H-indol-3-yl)ethyl)amino)-2,3-dihydro-1H-inden-5-yl)acrylamide] | 50 to 80 | > 80 | > 80 | > 80 | > 80 | > 80 | > 80 | > 80 | > 80 | < 50 | < 50 | < 50
COc1ccc2c(c1)CCC2NC(=O)CCCCCCC(=O)NO (stereo not drawn) [Compound 44] | 50 to 80 | > 80 | > 80 | 50 to 80 | > 80 | > 80 | 50 to 80 | > 80 | > 80 | < 50 | < 50 | < 50
O=C(/C=C/c1ccc2c(c1)CCC2NC(=O)c1ccc(F)cc1)NCCCCCC(=O)NO (stereo not drawn) [Compound 32, (E)-4-fluoro-N-(5-(3-((6-(hydroxyamino)-6-oxohexyl)amino)-3-oxoprop-1-en-1-yl)-2,3-dihydro-1H-inden-1-yl)benzamide] | > 80 | > 80 | > 80 | > 80 | > 80 | > 80 | 50 to 80 | > 80 | > 80 | < 50 | < 50 | < 50
COc1ccc(S(=O)(=O)NC2CCc3cc(/C=C/C(=O)NO)ccc32)cc1 (stereo not drawn) [Compound 20, (E)-N-hydroxy-3-(1-((4-methoxyphenyl)sulfonamido)-2,3-dihydro-1H-inden-5-yl)acrylamide] | 50 to 80 | > 80 | > 80 | 50 to 80 | > 80 | > 80 | > 80 | > 80 | > 80 | < 50 | < 50 | < 50
O=C(CCCCCCC(=O)Nc1ccc2c(c1)CCCC2O)NO (stereo not drawn) [Compound 2, N^1-hydroxy-N^8-(5-hydroxy-5,6,7,8-tetrahydronaphthalen-2-yl)octanediamide] | > 80 | > 80 | > 80 | > 80 | > 80 | > 80 | > 80 | > 80 | > 80 | < 50 | < 50 | < 50
Nc1cc(F)ccc1NC(=O)CCCCC(=O)N1CCN(C(=O)c2ccc3c(c2)CC/C(=C\c2cc(C(F)(F)F)cc(C(F)(F)F)c2)C3=O)CC1 [Compound 82, (E)-N-(2-amino-4-fluorophenyl)-6-(4-(6-(3,5-bis(trifluoromethyl)benzylidene)-5-oxo-5,6,7,8-tetrahydronaphthalene-2-carbonyl)piperazin-1-yl)-6-oxohexanamide] | < 50 | < 50 | < 50 | < 50 | < 50 | < 50 | < 50 | < 50 | 50 to 80 | > 80 | > 80 | > 80
O=C(CCCCCN(CC(=O)NC1CCc2ccccc21)CC(=O)NC1CCc2ccccc21)NO (stereo not drawn) [Compound 45, 2,2′-((6-(hydroxyamino)-6-oxohexyl)azanediyl)bis(N-(2,3-dihydro-1H-inden-1-yl)acetamide)] | > 80 | > 80 | > 80 | > 80 | > 80 | > 80 | > 80 | > 80 | > 80 | < 50 | < 50 | < 50
Nc1cc(F)ccc1NC(=O)CCCCCNC(=O)/C=C/c1ccc2c(c1)CCC2NC(=O)c1ccc(F)cc1 (stereo not drawn) [Compound 31, (E)-N-(5-(3-((6-((2-amino-4-fluorophenyl)amino)-6-oxohexyl)amino)-3-oxoprop-1-en-1-yl)-2,3-dihydro-1H-inden-1-yl)-4-fluorobenzamide] | < 50 | 50 to 80 | 50 to 80 | > 80 | > 80 | > 80 | 50 to 80 | > 80 | > 80 | < 50 | < 50 | < 50

Next, values leading:

inhibition at 2 µM (HDAC1) [%] | inhibition at 10 µM (HDAC1) [%] | inhibition at 50 µM (HDAC1) [%] | inhibition at 2 µM (HDAC2) [%] | inhibition at 10 µM (HDAC2) [%] | inhibition at 50 µM (HDAC2) [%] | inhibition at 2 µM (HDAC3) [%] | inhibition at 10 µM (HDAC3) [%] | inhibition at 50 µM (HDAC3) [%] | inhibition at 4 µM (ATX (autotaxin)) [%] | inhibition at 20 µM (ATX (autotaxin)) [%] | inhibition at 50 µM (ATX (autotaxin)) [%] | Structure (SMILES)
50 to 80 | > 80 | > 80 | 50 to 80 | > 80 | > 80 | < 50 | 50 to 80 | > 80 | 50 to 80 | 50 to 80 | 50 to 80 | CN(C(=O)OCc1cc(C(F)(F)F)cc(C(F)(F)F)c1)C1CCc2cc(/C=C/C(=O)NO)ccc21 (stereo not drawn) [Compound 64, 3,5-bis(trifluoromethyl)benzyl (E)-(5-(3-(hydroxyamino)-3-oxoprop-1-en-1-yl)-2,3-dihydro-1H-inden-1-yl)(methyl)carbamate]
< 50 | < 50 | 50 to 80 | < 50 | < 50 | 50 to 80 | < 50 | < 50 | 50 to 80 | 50 to 80 | 50 to 80 | 50 to 80 | O=C(/C=C/c1ccc(COc2ccc3c(c2)CC/C(=C\c2cc(C(F)(F)F)cc(C(F)(F)F)c2)C3=O)cc1)NO [Compound 72, (E)-3-(4-(((6-((E)-3,5-bis(trifluoromethyl)benzylidene)-5-oxo-5,6,7,8-tetrahydronaphthalen-2-yl)oxy)methyl)phenyl)-N-hydroxyacrylamide]
< 50 | 50 to 80 | > 80 | 50 to 80 | 50 to 80 | > 80 | < 50 | 50 to 80 | > 80 | < 50 | < 50 | < 50 | O=C(/C=C/c1ccc2c(c1)CCC2NS(=O)(=O)c1cc(C(F)(F)F)cc(C(F)(F)F)c1)NO (stereo not drawn) [Compound 18]
< 50 | 50 to 80 | > 80 | 50 to 80 | > 80 | > 80 | 50 to 80 | > 80 | > 80 | > 80 | > 80 | > 80 | O=C(CCCCCC(=O)Nc1ccc2c(c1)CC/C(=C\c1cc(C(F)(F)F)cc(C(F)(F)F)c1)C2=O)NO [Compound 12, (E)-N1-(6-(3,5-bis(trifluoromethyl)benzylidene)-5-oxo-5,6,7,8-tetrahydronaphthalen-2-yl)-N7-hydroxyheptanediamide]
> 80 | > 80 | > 80 | > 80 | > 80 | > 80 | > 80 | > 80 | > 80 | < 50 | < 50 | < 50 | O=C(/C=C/c1ccc2c(c1)CCC2NCCc1cc(C(F)(F)F)cc(C(F)(F)F)c1)NO (stereo not drawn) [Compound 54, (E)-3-(1-((3,5-bis(trifluoromethyl)phenethyl)amino)-2,3-dihydro-1H-inden-5-yl)-N-hydroxyacrylamide]
< 50 | 50 to 80 | > 80 | < 50 | > 80 | > 80 | < 50 | 50 to 80 | > 80 | > 80 | > 80 | > 80 | O=C(CCCCCCC(=O)Nc1ccc2c(c1)CCC(Cc1cc(C(F)(F)F)cc(C(F)(F)F)c1)C2=O)NO (stereo not drawn) [Compound 10, N1-(6-(3,5-bis(trifluoromethyl)benzyl)-5-oxo-5,6,7,8-tetrahydronaphthalen-2-yl)-N8-hydroxyoctanediamide]
> 80 | > 80 | > 80 | > 80 | > 80 | > 80 | > 80 | > 80 | > 80 | < 50 | < 50 | < 50 | COc1ccc(C(=O)NC2CCc3cc(/C=C/C(=O)NO)ccc32)cc1 (stereo not drawn) [Compound 25, (E)-N-(5-(3-(hydroxyamino)-3-oxoprop-1-en-1-yl)-2,3-dihydro-1H-inden-1-yl)-4-methoxybenz amide]
